Results reported in patent US7473708B2, “Agents with leukotriene B4-like antiviral (enveloped RNA) activities” (priority 1996, dated 2009).

Columns and labels:
EBV [1] = test: Detection of Epstein-Barr Nuclear Antigen (EBNA) in EBV-infected PBMC (ACIF test); type: cell-based, human; settings: 100 nM analog, PBMC, six days, EBNA by ACIF
Protocol: After ten days of culture, cells were harvested for determination of the presence of Epstein-Barr Nuclear Antigen (EBNA), a consequence of EBV infection. Preparation of cell smears, fixation and detection of EBNA by the anti-complement immunofluorescence (ACIF) test were carried out as described by Reedman B. M. and Klein G. (Int. J. Cancer, 1973, 11:499). Smears were prepared by spreading 50 μl of a concentrated suspension of washed cells (2×10^6/ml) on clean slides, air dried and fixed in cold acetone (−20° C.) during 10 minutes. Human serum (50 μl) from EBV seropositive donor was used as a source of complement. Slides were incubated at room temperature in a humid chamber during 45 minutes. Slides were then washed three times in phosphate buffer saline (PBS) and stained with 50 μl of fluorescein-5-isothiocyanate (FITC “Isomer I”)-conjugated goat IgG fraction anti-human complement C3 (Cappel Research Products, Durham, N.C.) during 60 minutes at room temperature in a humid chamber. Slides were washed in PBS (3 times), mounted in PBS:glycerol 1:1 and examined. Raji and U937 cells were used as positive and negative controls, respectively. The percentage of EBNA-positive cells was decreased by more than 55% with 30 nM LTB4, and by more than 70% with 100 nM LTB4 (FIG. 2). The results illustrated in FIG. 2 are representative of six (6) other experiments.
(§1) PBMC were infected with EBV and HSV-1 and treated or not with 100 nM of analogs of LTB4 such as 20-OH-LTB4, LTA3 methyl ester, 12(R)-HETE and 5(S), 15(S)-diHETE. After six days of culture, the presence of EBNA antigen (a consequence of EBV infection) was evaluated by the ACIF test, as described in Example I. Similarly, the presence of HSV-1 antigen in PBMC was evaluated by immunofluorescence using an antiserum obtained from a chronically infected donor as described above in section entitled “Detection of Specific HSV-1 Antigen”. […] The results illustrated in Table 1 are representative of three other experiments.

HSV-1 (strain McIntyre) = test: Detection of specific HSV-1 antigen in HSV-1-infected PBMC (immunofluorescence); type: cell-based, human; settings: 100 nM analog, six days, antiserum immunofluorescence
Protocol: Synthesis of the viral antigen was inhibited by 60% in the presence of 100 nM LTB4 (FIG. 4). The results illustrated in FIG. 4 are representative of five (5) other experiments.
as §1

HSV = settings: in vitro, read-out: IC50, viral replication; cited from earlier work
EBV [2] = settings: in vitro, read-out: IC50, viral replication; cited from earlier work

Structure (SMILES)	EBV infection, percentage of inhibition compared to infected PBMC cultured in the absence of analogs (EBV [1]) [%]	HSV-1 infection, percentage of inhibition compared to infected PBMC cultured in the absence of analogs (HSV-1 (strain McIntyre)) [%]	IC50 (HSV) [nM]	IC50 (EBV [2]) [nM]
CCCCCCCC\C=C/C=C/C=C/[C@@H]1O[C@H]1CCCC(=O)OC [LTA3 methyl ester, 14,15-dihydro-LTA4 methyl ester]	65	60	–	–
CCCCC/C=C\C[C@@H](O)/C=C/C=C\C/C=C\CCCC(=O)O [12(R)-HETE, 12(R)-hydroxy-5,8,10,14(Z,Z,E,Z)-eicosatetraenoic acid]	65	70	–	–
CCCCC[C@H](O)/C=C/C=C\C/C=C\C=C\[C@@H](O)CCCC(=O)O [5(S),15(S)-diHETE, 5(S),15(S)-dihydroxy-6,8,11,13-(E,Z,Z,E)-eicosatetrae-noic acid]	50	–	–	–
O=C(O)CCC[C@H](O)\C=C/C=C/C=C/[C@H](O)C/C=C\CCCCCO [20-OH-LTB4, 20-hydroxy-LTB4]	–	74	–	–
Nc1nc(O)c2ncn(COC(CO)CO)c2n1 [ganciclovir]	–	–	2400	1000
